Laboratory results taken from publication PMC7600679, “Benzoxazole-Based Metal Complexes to Reverse Multidrug Resistance in Bacteria” (Antibiotics, 2020).
Where two headings read alike, the source gives them in different places.

What was measured:
E. coli AG100 [1] = experiment: Real-time ethidium bromide accumulation (efflux pump inhibition, AcrAB-TolC); format: cell-based, Escherichia coli; conditions: compounds at ¼ MIC, EB 1 μg/mL, minute 30
Protocol: (§1) Since multidrug resistance EPs are very important factors contributing to multidrug resistance (MDR) in both Gram-positive and Gram-negative bacteria, the inhibition of these pumps could reverse the resistant phenotype and restore the activity of antibiotics. The effect of compounds on ethidium bromide (EB) accumulation was determined by the automated EB method. This assay was used to determine how much of the fluorescent dye and pump substrate EB was accumulated by the bacterial cells in the presence of the tested compounds. The real-time accumulation of EB was monitored for 30 min in both S. aureus and E. coli strains.
(§2) The accumulation of the efflux pump substrate EB was monitored by the automated EB method using a LightCycler real-time thermocycler (LightCycler 1.5, Roche, Indianapolis, IN, USA). An aliquot of an overnight culture of the S. aureus strains in TSB medium was inoculated into fresh TSB medium, and it was incubated until it reached an optical density (OD) of 0.6 at 600 nm. In the case of E. coli strains, the medium applied in the assay was LB broth; the preparation of the inoculum was similar to the one of S. aureus. The cells were washed with phosphate buffered saline (PBS; pH 7.4) and centrifuged at 13,000 × g for 3 min, the pellets were re-suspended in PBS (pH 7.4), and the OD was calibrated to 0.6 at 600 nm. The compounds were measured at ¼ MIC concentration (in double-concentrated form) to the EB solution in PBS. The final concentration of EB was determined according to the MIC and the fluorescent signal produced by this amount of EB. In the case of all strains, the concentration of EB was 1 μg/mL. Then, 10 μL of the EB solution plus the compound were pipetted into standard glass capillary tubes of 20 µL maximum volume (Roche, Indianapolis, USA), and 10 μL of bacterial culture (OD of 0.6 at 600 nm) were transferred to the capillaries. The capillaries containing the samples were placed into the carousel, and the fluorescence was monitored at the FL-2 channel in every minute on a real-time basis.
(§3) Based on the data obtained, the relative fluorescence index (RFI) of the last time point (minute 30) was determined as follows:RFI = (RFtreated − RFuntreated)/RFuntreated(1) where RFtreated is the relative fluorescence (RF) at the last time point of the EB retention curve in the presence of an inhibitor, and RFuntreated is the relative fluorescence at the last time point of the EB retention curve of the untreated control having the solvent control (DMSO).

[2] = test system: Staphylococcus aureus ATCC 25923; experiment: Minimum inhibitory concentration (broth microdilution, CLSI); format: cell-based; conditions: S. aureus ATCC 25923, 18 h, visual inspection
Protocol: (§4) The compounds were further investigated against two Gram-positive strains, S. aureus ATCC 25923 (MSSA), used as the methicillin susceptible reference strain, and the methicillin- and ofloxacin-resistant S. aureus 272123 clinical isolate (MRSA), which was given by Prof. Dr. Leonard Amaral (Institute of Hygiene and Tropical Medicine, Lisbon, Portugal).
(§5) The minimum inhibitory concentrations (MICs) of compounds were determined in 96-well plates based on the Clinical and Laboratory Standard Institute guidelines (CLSI guidelines). The compounds were diluted in 100 μL of MHB. Then, 10^−4 dilution of an overnight bacterial culture in 100 μL of medium were added to each well, with the exception of the medium control wells.

E. coli AG100 [3] = experiment: as above; format: cell-based, Escherichia coli; conditions: E. coli AG100, 18 h, visual inspection, read-out: MIC
Protocol: The strains were donated by Prof. Dr. Hiroshi Nikaido (Department of Molecular and Cell Biology and Chemistry, University of California, Berkeley, CA, USA).
as §5

E. coli AG100 A [4] = experiment: Real-time ethidium bromide accumulation (efflux pump inhibition); format: cell-based, Escherichia coli; conditions: compounds at ¼ MIC, EB 1 μg/mL, minute 30
Protocol: as §1, §2, §3

S. aureus 272123 (MRSA) [5] = experiment: Minimum inhibitory concentration (broth microdilution, CLSI); format: cell-based, Staphylococcus aureus; conditions: 18 h, visual inspection
Protocol: as §4, §5

[6] = test system: Enterobacter cloacae 31298; experiment: as above; format: cell-based; conditions: E. cloacae 31298
Protocol: (§6) The following bacterial strains were applied in the QS tests: C. violaceum 026 as sensor strain and E. cloacae 31298 isolated from clinical wound (used as N-acyl-homoserine lactone (AHL) producer); this strain induced pigment production by C. violaceum and is a model strain to study QS interactions.
as §5

[7] = test system: Chromobacterium violaceum 026; experiment: as above; format: cell-based; conditions: C. violaceum 026
Protocol: as §6, §5

[8] = test system: MRC-5 human embryonal lung fibroblast cell line; experiment: Cytotoxicity assay (MTT); format: cell-based
Protocol: The MRC-5 human embryonic lung fibroblast cell line (ATCC CCL-171; provider: LGC Promochem, Teddington, UK) was used in the experiments. The cells were cultivated in Eagle’s Minimal Essential Medium (EMEM; Sigma–Aldrich, St. Louis, MO, USA), supplemented with 1% non-essential amino acid mixture, 10% heat-inactivated fetal bovine serum, 2 mM L-glutamine, 1 mM Na-pyruvate, nystatin, and a penicillin–streptomycin mixture in concentrations of 100 U/L and 10 mg/L, respectively. The supplementary components were obtained from Sigma–Aldrich, St. Louis, MO, USA. The cell culture was kept in a humidified atmosphere (5% CO2, 95% air) at 37 °C.
The activity of increasing concentrations of the compounds on cell growth was determined in 96-well flat-bottomed microtiter plates by two-fold serial dilutions of the benzoxazole derivatives. The adherent human embryonic lung fibroblast cells (10^4/well) was seeded in EMEM medium in 96-well microtiter plates for 4 h prior to the assay. The serial dilutions of the compounds were made in a separate plate, and then pipetted to the plates containing the MRC-5 cell line. Culture plates were incubated at 37 °C for 24 h; at the end of the incubation period, 20 μL of MTT (3-(4,5-dimethylthiazol-2-yl)-2,5-diphenyltetrazolium bromide) solution (from a 5 mg/mL stock solution) was measured to each well. After the incubation at 37 °C for 4 h, 100 μL of sodium dodecyl sulfate (SDS) solution (10% SDS in 0.01 M HCl) was added to each well to dissolve the formazan crystals and the samples were further incubated at 37 °C overnight. Cell growth was calculated by measuring the OD at 540 nm (ref. 630 nm) with a Multiscan EX ELISA reader. The cytotoxicity was expressed as IC50 values, defined as the inhibitory dose that reduces the growth of the cells exposed to the tested compounds by 50%.

S. aureus 272123 (MRSA) [9] = experiment: Real-time ethidium bromide accumulation (efflux pump inhibition); format: cell-based, Staphylococcus aureus; conditions: compounds at ¼ MIC (3 at 12.5 µM), VER at 25 µM, EB 1 μg/mL, minute 30
Protocol: as §1, §2, §3

S. aureus ATCC 25923 = experiment: as above; format: cell-based, Staphylococcus aureus; conditions: compounds at ¼ MIC, EB 1 μg/mL, minute 30
Protocol: as §1, §2, §3

E. coli AG100 A [10] = experiment: Minimum inhibitory concentration (broth microdilution, CLSI); format: cell-based, Escherichia coli; conditions: 18 h
Protocol: Wild-type E. coli K-12 AG100 strain (argE3 thi-1 rpsL xyl mtl Δ(gal-uvrB) supE44) expressing the AcrAB TolC EP at its basal level and its AcrAB-TolC deleted mutant E. coli K-12 AG100 A strain. The strains were donated by Prof. Dr. Hiroshi Nikaido (Department of Molecular and Cell Biology and Chemistry, University of California, Berkeley, CA, USA).
as §5

E. coli AG100 [11] = experiment: Resistance modulation (MIC reduction) assay with CIP and TET; format: cell-based, Escherichia coli; conditions: for CIP MIC in combination with compounds: value is the MIC of ciprofloxacin
Protocol: (§7) The resistance modulation effects of compounds with ciprofloxacin (CIP) and tetracycline (TET) antibiotics were evaluated by the MIC reduction method on the Gram-negative E. coli AG100, AG100 A, and the Gram-positive S. aureus ATCC and MRSA strains.
(§8) The chemosensitizing activity of benzoxazole-type ligands and their metal complexes was determined based on the MIC values of the antibiotics in the presence of sub-inhibitory concentrations of the compounds (¼ MIC) in both Gram-negative and Gram-positive strains. The MICs were determined in strains by the two-fold broth microdilution method in 96-well plates, using serial dilutions of TET and CIP. The first four rows contained two-fold dilutions of antibiotics, and combinations of the TET and CIP and tested compounds were transferred into the last four rows. The 10^−4 dilution of an overnight bacterial culture in 50 μL of MHB was then measured to each well, except for the medium control wells. The plates were kept at 37 °C for 18 h. MIC values of antibiotics and their combination with tested compounds were detected by visual inspection.

S. aureus MRSA 272123 = experiment: as above; format: cell-based, Staphylococcus aureus; conditions: for Reduction of the MIC value of CIP: compound at a quarter of the MIC; for CIP MIC in combination with compounds: compound at ¼ MIC, value is the MIC of ciprofloxacin
Protocol: as §7, §8

[12] = E. coli AG100 A (AcrAB-TolC deleted), visual inspection

SMILES | Relative fluorescence index (RFI) (E. coli AG100 [1]) | MIC [2] [µM] | MIC (E. coli AG100 [3]) [µM] | Relative fluorescence index (RFI) (E. coli AG100 A [4]) | MIC (S. aureus 272123 (MRSA) [5]) [µM] | MIC [6] [µM] | MIC [7] [µM] | Cytotoxic effect (class in words) ([8]; 24 h) | IC50 ([8]; 24 h) [µM] | Relative fluorescence index (RFI) (S. aureus 272123 (MRSA) [9]) | Relative fluorescence index (RFI) (S. aureus ATCC 25923) | MIC (E. coli AG100 A [10]; [12]) [µM] | CIP MIC in combination with compounds (E. coli AG100 [11]; compound at ¼ MIC) [µM] | Reduction of the MIC value of CIP (S. aureus MRSA 272123) [fold] | CIP MIC in combination with compounds (S. aureus MRSA 272123) [µM] | also measured
[O-]C(=Cc1nc2ccccc2o1)C(F)F.[O-]C(=Cc1nc2ccccc2o1)C(F)F.[Zn+2] [Compound 6] | 0.08 | 25 | 50 | −0.15 | 12.5 | >100 | >100 | strong (IC50: 0–30) | 4.72 | −0.02 | 0.08 | 12.5 | – | – | – | –
[Cu+2].[O-]C(=Cc1nc2ccccc2o1)C(F)(F)F.[O-]C(=Cc1nc2ccccc2o1)C(F)(F)F [Compound 7] | −0.06 | 12.5 | >100 | 0.11 | 3.125 | >100 | >100 | weak (IC50: 61–100) | 76.1 | −0.01 | 0.12 | 12.5 | 0.016 | 2 | 6.25 | –
FC(F)(F)C1=Cc2oc3ccccc3[n+]2[Mg-2]2([O]1)[O]C(C(F)(F)F)=Cc1oc3ccccc3[n+]12 [Compound 9] | – | – | – | – | – | – | – | no (IC50 > 100 µM) | – | – | – | – | 0.008 | 2 | 6.25 | MIC ([2]; Staphylococcus aureus, ATCC25923): 25 µM; MIC (E. coli AG100 [3]; Escherichia coli): 50 µM; Reduction of the MIC of CIP (E. coli AG100 [11]; compound at ¼ MIC): 2 fold; MIC (S. aureus 272123 (MRSA) [5]; Staphylococcus aureus): 6.25 µM; MIC ([6]; Enterobacter cloacae): > 100 µM; MIC ([7]; Chromobacterium violaceum): > 100 µM; IC50 ([8]; Homo sapiens, MRC5, 24 h): > 100 µM; MIC (E. coli AG100 A [10]; Escherichia coli, AG100A): 25 µM
[O-]C(=Cc1nc2ccccc2o1)C(F)(F)F.[O-]C(=Cc1nc2ccccc2o1)C(F)(F)F.[Pd+2] [Compound 10] | −0.06 | >100 | >100 | 0 | >100 | >100 | >100 | weak (IC50: 61–100) | 89.1 | 0 | 0 | >100 | – | – | – | –
CN(C)[C@@H]1C(O)=C(C(N)=O)C(=O)[C@@]2(O)C(O)=C3C(=O)c4c(O)cccc4[C@@](C)(O)[C@H]3C[C@@H]12 [TET, tetracycline, reference compound] | – | – | – | – | – | – | – | – | – | – | – | – | – | – | – | MIC of antibiotic in the absence of the compounds (E. coli AG100 [11]; antibiotic alone): 50 µM; MIC of antibiotic in the absence of the compounds (S. aureus MRSA 272123; antibiotic alone): 6.25 µM
